Reference: patent US10285989B2, “Pyrimidinone amide compounds as PDE2 inhibitors” (Merck Sharp & Dohme Corp., priority 2015, dated 2019)
Like-named read-outs stand apart in the source and are kept apart here.

What was measured:
Rhesus PDE2A3 = Rhesus PDE2A3 (Macaca mulatta, UniProt B3VTJ2); experiment: PDE2 fluorescence polarization (IMAP FP) inhibition assay, rhesus PDE2A3; assay type: biochemical, rhesus macaque
human PDE2A1 = human PDE2A1 (Homo sapiens (Human), UniProt O00408); experiment: PDE2 IMAP FP inhibition assay, human PDE2A1 (selectivity panel format); assay type: biochemical
Chain of human PDE2A1 (O00408 other isoform, or with tags, fused parts or gaps): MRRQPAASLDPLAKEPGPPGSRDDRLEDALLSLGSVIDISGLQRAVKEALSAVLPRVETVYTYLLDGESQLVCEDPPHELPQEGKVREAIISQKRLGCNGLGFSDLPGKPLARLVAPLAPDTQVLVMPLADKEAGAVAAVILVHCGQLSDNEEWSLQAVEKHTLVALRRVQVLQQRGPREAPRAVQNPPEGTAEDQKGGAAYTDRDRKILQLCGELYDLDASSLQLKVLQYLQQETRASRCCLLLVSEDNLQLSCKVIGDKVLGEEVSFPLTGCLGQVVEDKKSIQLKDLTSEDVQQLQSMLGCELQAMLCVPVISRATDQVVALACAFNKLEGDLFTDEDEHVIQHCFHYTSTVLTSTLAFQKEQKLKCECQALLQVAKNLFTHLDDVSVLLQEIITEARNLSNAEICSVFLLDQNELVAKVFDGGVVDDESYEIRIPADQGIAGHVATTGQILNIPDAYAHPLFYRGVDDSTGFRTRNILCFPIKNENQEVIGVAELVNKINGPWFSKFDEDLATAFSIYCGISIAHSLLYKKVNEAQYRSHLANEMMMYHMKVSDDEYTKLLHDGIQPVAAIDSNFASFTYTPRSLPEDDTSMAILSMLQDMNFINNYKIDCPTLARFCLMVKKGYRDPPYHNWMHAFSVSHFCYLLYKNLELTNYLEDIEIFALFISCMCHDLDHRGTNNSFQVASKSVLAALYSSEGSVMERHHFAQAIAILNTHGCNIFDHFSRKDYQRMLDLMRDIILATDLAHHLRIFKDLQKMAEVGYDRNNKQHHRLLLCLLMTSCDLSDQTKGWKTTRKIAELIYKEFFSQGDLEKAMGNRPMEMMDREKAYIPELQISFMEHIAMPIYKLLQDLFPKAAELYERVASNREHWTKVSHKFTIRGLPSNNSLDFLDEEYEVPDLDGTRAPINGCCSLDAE
How it was run: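 Enzyme dosed to give about 20% substrate turnover acts for 60 min at room temperature on 50 nM FAM-cAMP plus 1000 nM cGMP (Tris pH 7.2, MgCl2, DTT, Tween-20 buffer). IMAP binding solution then stops the reaction; after 1 h, polarization is measured from parallel and perpendicular fluorescence.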

P-glycoprotein (P-gp) = P-glycoprotein (P-gp) (Homo sapiens (Human), UniProt P08183); experiment: P-gp transport, experimental BA/AB ratio, human; assay type: in vitro ADME; settings: LLC-PK1, 1 μM substrate concentration
Chain of P-glycoprotein (P-gp) (P08183 whole entry): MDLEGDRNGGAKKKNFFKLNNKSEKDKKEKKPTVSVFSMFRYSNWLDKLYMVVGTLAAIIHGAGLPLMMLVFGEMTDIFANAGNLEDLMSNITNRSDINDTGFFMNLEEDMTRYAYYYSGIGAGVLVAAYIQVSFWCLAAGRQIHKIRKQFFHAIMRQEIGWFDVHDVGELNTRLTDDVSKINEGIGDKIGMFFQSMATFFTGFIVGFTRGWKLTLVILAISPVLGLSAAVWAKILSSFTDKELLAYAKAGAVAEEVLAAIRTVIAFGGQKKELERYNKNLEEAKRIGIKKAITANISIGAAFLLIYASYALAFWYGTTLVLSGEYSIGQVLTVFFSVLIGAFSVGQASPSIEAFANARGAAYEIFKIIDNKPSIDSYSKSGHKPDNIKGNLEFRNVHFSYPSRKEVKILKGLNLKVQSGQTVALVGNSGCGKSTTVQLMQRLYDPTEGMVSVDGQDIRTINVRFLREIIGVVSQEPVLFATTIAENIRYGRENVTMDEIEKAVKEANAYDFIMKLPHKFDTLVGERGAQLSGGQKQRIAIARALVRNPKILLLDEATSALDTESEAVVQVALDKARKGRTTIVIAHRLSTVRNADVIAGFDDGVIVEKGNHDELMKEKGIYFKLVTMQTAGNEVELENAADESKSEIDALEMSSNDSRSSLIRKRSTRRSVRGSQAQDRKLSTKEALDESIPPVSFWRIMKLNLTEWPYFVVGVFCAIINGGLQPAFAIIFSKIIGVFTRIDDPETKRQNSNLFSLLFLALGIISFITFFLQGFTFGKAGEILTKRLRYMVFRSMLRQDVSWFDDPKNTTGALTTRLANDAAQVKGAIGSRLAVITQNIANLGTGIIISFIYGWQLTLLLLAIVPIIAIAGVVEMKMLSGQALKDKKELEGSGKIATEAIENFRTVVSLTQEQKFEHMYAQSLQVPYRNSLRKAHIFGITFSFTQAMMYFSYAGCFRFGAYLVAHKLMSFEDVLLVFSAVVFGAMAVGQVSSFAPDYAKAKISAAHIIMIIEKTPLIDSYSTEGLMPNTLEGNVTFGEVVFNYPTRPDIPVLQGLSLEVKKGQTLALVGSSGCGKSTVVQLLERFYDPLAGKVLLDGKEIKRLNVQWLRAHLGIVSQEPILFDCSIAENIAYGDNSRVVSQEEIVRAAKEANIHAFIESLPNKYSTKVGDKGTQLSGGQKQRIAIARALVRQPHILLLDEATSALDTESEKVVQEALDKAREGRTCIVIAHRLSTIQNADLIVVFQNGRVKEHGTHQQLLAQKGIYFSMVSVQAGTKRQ
Excerpt: (§1) See Doan et al. “Passive permeability and P-glycoprotein-mediated efflux differentiate central nervous system (CNS) and non-CNS marketed drugs”, J. Pharm. Exper. […] Desirable human BA/AB ratio is less than 2.0. […] See, for example, Desai, et al. Integration of in Silico and in Vitro Tools for Scaffold Optimization during Drug Discovery: Predicting P-glycoprotein Efflux” Mol. Pharmac.

[1] = target: P-glycoprotein (P-gp, rat Mdr1a) (Rattus norvegicus, UniProt Q6PSM0); experiment: P-gp transport, experimental BA/AB ratio, rat LLC-Mdr1a; assay type: in vitro ADME; settings: LLC-PK1; rat LLC-Mdrla; 1 μM substrate concentration
Chain of P-glycoprotein (P-gp, rat Mdr1a) (Q6PSM0 1-1272): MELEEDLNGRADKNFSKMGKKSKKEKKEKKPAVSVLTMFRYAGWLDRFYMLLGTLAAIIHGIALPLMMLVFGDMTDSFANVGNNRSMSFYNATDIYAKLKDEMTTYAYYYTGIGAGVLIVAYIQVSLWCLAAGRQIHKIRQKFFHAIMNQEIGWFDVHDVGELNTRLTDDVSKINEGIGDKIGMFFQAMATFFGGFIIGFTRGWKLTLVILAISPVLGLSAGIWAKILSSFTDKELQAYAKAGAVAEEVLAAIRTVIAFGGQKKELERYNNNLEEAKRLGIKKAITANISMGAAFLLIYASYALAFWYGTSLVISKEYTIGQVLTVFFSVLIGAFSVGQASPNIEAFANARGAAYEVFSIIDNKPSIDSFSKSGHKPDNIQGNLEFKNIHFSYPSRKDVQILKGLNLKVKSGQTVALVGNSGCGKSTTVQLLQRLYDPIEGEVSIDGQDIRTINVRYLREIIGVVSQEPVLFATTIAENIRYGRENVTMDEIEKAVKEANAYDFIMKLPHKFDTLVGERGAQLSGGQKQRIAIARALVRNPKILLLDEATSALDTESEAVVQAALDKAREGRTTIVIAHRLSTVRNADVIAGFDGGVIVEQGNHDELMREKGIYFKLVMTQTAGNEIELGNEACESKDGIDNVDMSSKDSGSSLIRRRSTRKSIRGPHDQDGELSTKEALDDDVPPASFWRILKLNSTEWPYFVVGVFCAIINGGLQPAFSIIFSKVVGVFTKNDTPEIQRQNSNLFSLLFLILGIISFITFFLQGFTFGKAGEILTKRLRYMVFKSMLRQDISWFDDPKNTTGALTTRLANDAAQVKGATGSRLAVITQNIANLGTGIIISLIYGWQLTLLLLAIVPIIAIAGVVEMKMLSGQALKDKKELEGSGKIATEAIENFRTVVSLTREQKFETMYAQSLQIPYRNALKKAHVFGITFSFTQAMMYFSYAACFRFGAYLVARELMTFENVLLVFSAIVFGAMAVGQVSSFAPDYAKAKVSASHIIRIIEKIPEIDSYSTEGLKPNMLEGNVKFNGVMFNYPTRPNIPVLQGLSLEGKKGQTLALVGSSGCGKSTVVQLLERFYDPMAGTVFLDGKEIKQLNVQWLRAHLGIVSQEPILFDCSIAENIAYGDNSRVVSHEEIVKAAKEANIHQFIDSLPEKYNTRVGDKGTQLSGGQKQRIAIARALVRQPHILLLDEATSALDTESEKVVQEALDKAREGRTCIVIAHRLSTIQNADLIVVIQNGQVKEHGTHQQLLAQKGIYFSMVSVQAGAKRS
Excerpt: as §1

[2] = Lab A, read-out: Rhesus PDE2 Ki (nM) - Lab A
[3] = Lab B, read-out: Rhesus PDE2 Ki (nM) - Lab B
[4] = Lab B, read-out: Human PDE2 Ki (nM) - Lab B
[5] = Lab A, read-out: Human PDE2 Ki (nM) - Lab A

Chain of Rhesus PDE2A3 (B3VTJ2 1-941): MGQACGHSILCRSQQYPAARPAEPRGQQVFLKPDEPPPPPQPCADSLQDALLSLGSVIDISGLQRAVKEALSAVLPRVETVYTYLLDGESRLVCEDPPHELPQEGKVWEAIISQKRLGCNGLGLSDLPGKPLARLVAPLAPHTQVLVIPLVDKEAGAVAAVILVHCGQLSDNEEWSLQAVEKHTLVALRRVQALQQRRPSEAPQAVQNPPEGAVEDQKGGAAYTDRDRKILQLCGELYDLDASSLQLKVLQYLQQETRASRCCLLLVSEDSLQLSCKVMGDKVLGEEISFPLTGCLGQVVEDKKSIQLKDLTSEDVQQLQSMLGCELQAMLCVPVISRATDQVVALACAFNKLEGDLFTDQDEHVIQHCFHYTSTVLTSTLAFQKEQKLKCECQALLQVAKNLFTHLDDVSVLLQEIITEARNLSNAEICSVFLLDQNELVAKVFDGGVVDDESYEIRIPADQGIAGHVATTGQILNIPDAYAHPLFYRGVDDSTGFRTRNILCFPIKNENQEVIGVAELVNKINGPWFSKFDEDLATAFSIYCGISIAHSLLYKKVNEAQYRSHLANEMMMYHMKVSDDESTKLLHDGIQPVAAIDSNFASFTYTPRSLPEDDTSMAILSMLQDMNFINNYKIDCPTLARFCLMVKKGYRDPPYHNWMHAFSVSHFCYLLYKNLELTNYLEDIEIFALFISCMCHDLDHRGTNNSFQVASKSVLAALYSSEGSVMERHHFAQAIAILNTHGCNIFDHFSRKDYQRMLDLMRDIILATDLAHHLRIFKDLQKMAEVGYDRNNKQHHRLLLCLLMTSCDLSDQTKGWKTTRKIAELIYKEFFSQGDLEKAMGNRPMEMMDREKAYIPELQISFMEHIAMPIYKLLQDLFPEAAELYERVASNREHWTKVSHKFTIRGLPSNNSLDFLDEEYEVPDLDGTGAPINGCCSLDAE

SMILES	Ki (Rhesus PDE2A3; [2])	Ki (Rhesus PDE2A3; [3])	Ki (human PDE2A1; [4])	efflux ratio at 1 μM (P-glycoprotein (P-gp))	efflux ratio at 1 μM [1]	Ki (human PDE2A1; [5])	Ki (Rhesus PDE2A3; Rhesus PDE2 Ki (nM) - Lab B, Lab B)
CC[C@@H](NC(=O)c1cc(=O)[nH]c(N(C)C)n1)c1ccc(OC(F)(F)F)cc1 [Example 105, 2-(dimethylamino)-6-oxo-N-{(1R)-1-[4-(trifluoromethoxy)phenyl]propyl}-1,6-dihydropyrimidine-4-carboxamide]	1 nM	1.8 nM	1.6 nM	0.5	3.7		
CN(C)c1nc(C(=O)N[C@@H](c2ccc(OC(F)(F)F)c(F)c2)C2CC2)cc(=O)[nH]1 [Example 110, N-{(1R)-cyclopropyl[3-fluoro-4-(trifluoromethoxy)phenyl]methyl}-2-(dimethylamino)-6-oxo-1,6-dihydropyrimidine-4-carboxamide]	0.48 nM	0.96 nM	1.3 nM	0.5	3.5		
CC(C)[C@@H](NC(=O)c1cc(=O)[nH]c(N2CC[C@H](F)C2)n1)c1ccc(C(F)(F)F)c(F)c1 [Example 168, 2-[(3S)-3-fluoropyrrolidin-1-yl]-N-{(1R)-1-[3-fluoro-4-(trifluoromethyl)phenyl]-2-methylpropyl}-6-oxo-1,6-dihydropyrimidine-4-carboxamide]		0.5 nM	0.47 nM	4.1	21.2		
O=C(N[C@@H](c1ccc(C(F)(F)F)cc1)C1CC1)c1cc(=O)[nH]c(N2CC[C@H](F)C2)n1 [Example 167, N-{(R)-cyclopropyl[4-(trifluoromethyl)phenyl]methyl}-2-[(3S)-3-fluoropyrrolidin-1-yl]-6-oxo-1,6-dihydropyrimidine-4-carboxamide]		1.4 nM	2.3 nM	1.9	27.4		
CN(C)c1nc(C(=O)N[C@@H](c2ccc(C(F)(F)F)c(F)c2)C(C)(C)C)cc(=O)[nH]1 [Example 102, 2-(dimethylamino)-N-{(1R)-1-[3-fluoro-4-(trifluoromethyl)phenyl]-2,2-dimethylpropyl}-6-oxo-1,6-dihydropyrimidine-4-carboxamide]		0.18 nM	0.2 nM	1.4	5.7		
CC(C)[C@@H](NC(=O)c1cc(=O)[nH]c(N)n1)c1ccc(SC(F)(F)F)c(F)c1 [Example 156, 2-amino-N-[(1R)-1-{3-fluoro-4-[(trifluoromethyl)sulfanyl]phenyl}-2-methylpropyl]-6-oxo-1,6-dihydropyrimidine-4-carboxamide]	24 nM			11.1	11.3	10 nM	
O=C(N[C@@H](c1ccc(C(F)(F)F)cc1)C1CC1)c1cc(=O)[nH]c(N2CCCC2)n1 [Example 26]	1.4 nM			0.9	4.5	0.34 nM	
C[C@@H](NC(=O)c1cc(=O)[nH]c(N2CCC2)n1)c1ccc(C(F)(F)F)cc1 [Example 10, (R)-2-(azetidin-1-yl)-6-oxo-N-(1-(4-(trifluoromethyl)phenyl)ethyl)-1,6-dihydropyrimidine-4-carboxamide]	8.5 nM			0.5	3.1	8.2 nM	
CN(C)c1nc(C(=O)NC(C)(C)c2ccc(C(F)(F)F)cc2Cl)cc(=O)[nH]1 [Example 80, N-{1-[2-chloro-4-(trifluoromethyl)phenyl]-1-methylethyl}-2-(dimethylamino)-6-oxo-1,6-dihydropyrimidine-4-carboxamide]		0.65 nM	0.79 nM	0.4	1.7		
C[C@@H](NC(=O)c1cc(=O)[nH]c(N(C)C)n1)c1ccc(OC(F)(F)F)c(F)c1 [Example 90, 2-(dimethylamino)-N-{(1R)-1-[3-fluoro-4-(trifluoromethoxy)phenyl]ethyl}-6-oxo-1,6-dihydropyrimidine-4-carboxamide]	0.69 nM			0.5	2.7	0.28 nM	
CC(C)[C@@H](NC(=O)c1cc(=O)[nH]c(N2CCCC2)n1)c1ccc(SC(F)(F)F)cc1 [Example 147, N-[(1R)-2-methyl-1-{4-[(trifluoromethyl)sulfanyl]phenyl}propyl]-6-oxo-2-pyrrolidin-1-yl-1,6-dihydropyrimidine-4-carboxamide]	0.19 nM	0.15 nM	0.26 nM	0.7	5.9		
CC(C)[C@@H](NC(=O)c1cc(=O)[nH]c(N2CCC2)n1)c1ccc(SC(F)(F)F)cc1 [Example 148, 2-azetidin-1-yl-N-[(1R)-2-methyl-1-{4-[(trifluoromethyl)sulfanyl]phenyl}propyl]-6-oxo-1,6-dihydropyrimidine-4-carboxamide]	0.42 nM			1.3	9.5	0.2 nM	
CC[C@@H](NC(=O)c1cc(=O)[nH]c(N(C)C)n1)c1ccc(OC(F)(F)F)c(F)c1 [Example 104, 2-(dimethylamino)-N-{(1R)-1-[3-fluoro-4-(trifluoromethoxy)phenyl]propyl}-6-oxo-1,6-dihydropyrimidine-4-carboxamide]	0.56 nM	1.1 nM	1.1 nM	0.6	4.2		
CN(C)c1nc(C(=O)N[C@@H](c2ccc(C(F)(F)F)cc2)C(C)(C)C)cc(=O)[nH]1 [Example 2, (R)—N-(2,2-dimethyl-1-(4-(trifluoromethyl)phenyl)propyl)-2-(dimethylamino)-6-oxo-1,6-dihydropyrimidine-4-carboxamide]			0.15 nM	0.6	2.6		0.11 nM
CNc1nc(C(=O)N[C@H](C)c2ccc(SC(F)(F)F)cc2)cc(=O)[nH]1 [Example 144, 2-(methylamino)-6-oxo-N-[(1R)-1-{4-[(trifluoromethyl)sulfanyl]phenyl}ethyl]-1,6-dihydro-pyrimidine-4-carboxamide]	5.7 nM			3.3	14.2	3.4 nM	
CNc1nc(C(=O)N[C@@H](c2ccc(OC(F)(F)F)c(F)c2)C(C)C)cc(=O)[nH]1 [Example 151, N-{(1R)-1-[3-fluoro-4-(trifluoromethoxy)phenyl]-2-methylpropyl}-2-(methylamino)-6-oxo-1,6-dihydro-pyrimidine-4-carboxamide]	4.7 nM			6.5	18.7	2.8 nM	
CN(C)c1nc(C(=O)NC2(c3ccc(S(F)(F)(F)(F)F)cc3)CC2)cc(=O)[nH]1 [Example 45, 2-(dimethylamino)-6-oxo-N-{1-[4-(pentafluoro-λ^6-sulfanyl)phenyl]cyclopropyl}-1,6-dihydropyrimidine-4-carboxamide]		2.1 nM	1.7 nM	0.6	10.1		
